Measured values as given in patent publication US7071206B2, “Agents for treating neurodegenerative disorders” (Medivation, Inc., priority 1995, dated 2006).

Experiments:
[1] = test system: NMDA receptor; assay: Anti-NMDA activity: prevention of convulsions and death caused by NMDA injected into the lateral ventricle of the brain; assay type: in vivo; settings: mice; i.p. 40 minutes before NMDA 0.1 μg into the lateral ventricle; probit analysis
Protocol: The experiment was conducted in white non-inbred male mice of 20–24 g of weight. A solution of the test agent in 0.2 ml of 5% aqueous dimethylsulfoxide was injected intraperitoneally 40 minutes before the injection of NMDA into the lateral vehicle of the brain. For the mice that had been prepared beforehand for the experiment a skin flap on the head of each mouse was removed under ether anestesia and a hole was bored in the skull by a fine drill. NMDA (0.1 μg) in a volume of 1.4 μl was injected with a microsyringe. The microsyringe needle was immersed to a depth of 2.5 mm. After the operation, the wound was treated with a 2% novocaine solution. […] The accuracy of NMDA injection was monitored by injection of methylene blue. Two to 4 hours after the operation, the mice were used for a pharmacological experiment.
The animals inoculated with a saline solution were used as control.
Each dose of the agent was tested in a croup of 6–8 animals. The ED50 value (the dose of the agent preventing the development of convulsions and the death of 50% of the animals) was determined by a probit-analysis method (Litchfild J. T., Wicoxon F. J.—Pharmacol. Exp. Therap., 1949, v. 96, p. 99–114).

[2] = test system: patients suffering from Alzheimer's disease; assay: Clinical trial of dimebon: EEG investigations; assay type: in vivo, human; settings: any patients except one (observation 12: increase of focal Δ-waves, retardation of the rhythm)
Source text: In observations 2, 11 and 14 the weakly positive dynamics of the EEG was manifested in weaker outbursts during hyperventilation and normalization of the zonal differences.

[3] = test system: patients suffering from Alzheimer's disease; assay: Clinical trial of dimebon tablets, Hazegawa's scale (0 score = poorest result); assay type: in vivo, human
Protocol: (§1) The test was carried out under the direct supervision by two of the inventors, namely E. E. Bukatina and V. Grigorieva, in 14 patients who agreed to take part in the tests, 13 of whom lived in a boarding house for senile persons and one patient lived with their family.
Alzheimer's disease was diagnosed on the basis of criteria ICD-10 NINCDS ADRDA.
(§2) Dimebon in the form of tablets (comprising 10 mg of dimebon, 30 mg of lactose, 5 mg of magnesium stearate was prescribed for oral administration in a dose of 0.02 g three to times a day. The patients living in the boarding house received dimebon for 58 days. A patient (observation 14) who was under outpatient observation continued taking the agent for a month after the completion of the tests.
Before the treatment with dimebon, and at 4 and 8 weeks after treatment the patients were examined according to Hazegawa's scale and the inventors' scale (“Social and Clinical Psychiatry”, 1992, No.4, pp.29–37) which includes the following indexes: (1) orientation in locality, time, immediate surroundings and one's own personality; (2) orientation in space; (3) memory for the past; (4) memory for the present; (5) “life in the past”; (6) (a) articulation, (b) difficulty in finding words, and distortion of words; (c) naming of objects; (d) following instructions; (7) concentration (of attention); (8) an affective sphere; (a) high spirits, (b) low spirits; (9) delirium; (10) hearing hallucinations; (11) visual hallucinations; (12) senile or senile-like confusion (when motion anxiety is accompanied by the revival of the past experience); (13) irritability; (14) anxiety; (15) asthenia; (16) headaches; (17) dizziness; (18) tearfulness; (19) spontaneous activity; (20) elementary self-service; and (21 control of sphincters.
According to the Hazegawa's scale, the 0 score indicates the poorest result; on the contrary, according to the inventors' scale, the 0 score indicates the absence of a symptom 4 score indicates the greatest manifestation thereof. […] Before the therapy was started, the patients had been independently examined by two doctors who used the inventors' scale. The examination during the treatment was carried out by the doctors using both the scales. The evaluation according to all the inventors' scale points during all the tests and their variations during the treatment with dimebon are given in the Appendix.
Both absolute evaluations of the signs under investigation (the evaluation prior to treatment is a mean evaluation of the two examinations) and variations in them were analysed in the course of therapy. In doing so, only those changes that were beyond the range of evaluations obtained in two pre-treatment examinations were taken into consideration. […]

[4] = test system: patients suffering from Alzheimer's disease; assay: Clinical trial of dimebon: blood and urea analysis; assay type: in vivo, human
Source text: By the 8th week of the treatment the amount of leukocytes was normal again.

[5] = test system: patients suffering from Alzheimer's disease; assay: Clinical trial of dimebon: clinical observations of the mental state; assay type: in vivo, human
Protocol: as §1, §2
The test results reflected the condition of the patients at the time of the examination. Any changes in the metal state observed in the interval between the tests and disappearing by the moment of examination according to the scale were described in the section “Clinical Observations”.
The pattern of the dynamics of the mental states of the patients during the treatment with dimebon registered in clinical observations is presented in Table 17.

[6] = test system: patients suffering from Alzheimer's disease; settings: general statement on the agent used in medicine as antiallergic; cited from earlier work

Cc1ccc2c(c1)c1c(n2CCc2ccc(C)nc2)CCN(C)C1 [No. 10, 2,8-dimethyl-5-[2-(6-methyl-3-pyridyl)ethyl]-2,3,4,5-tetrahydro-1H-pyrido[4,3-b]indole]
ED50 (dose preventing the development of convulsions and the death of 50% of the animals) [1]: 42 ± 6 mg/kg
changes in the EEG during the course of treatment [2]: No changes in the EEG
Evaluation according to Hazegawa's scale, M +/− m ([3]; mean of 7 patients with nonprofound dementia, after 4 weeks): 20.79 +/− 1.85
Evaluation according to Hazegawa's scale, M +/− m ([3]; mean of 7 patients with nonprofound dementia, after 8 weeks): 23 +/− 1.17
Evaluation according to Hazegawa's scale, M +/− m ([3]; mean of 14 patients, after 4 weeks): 14.68 +/− 1.87
Evaluation according to Hazegawa's scale, M +/− m ([3]; mean of 14 patients, after 8 weeks): 15.68 +/− 2.39
amount of leukocytes ([4]; after 4 weeks, within normal limits, p<0.05): significant reduction
amount of leukocytes ([4]; by the 8th week): normal again
hematological and biochemical status ([4]; during the course of the treatment): No pathologic changes
number of patients who became more active (cheerfulness and freshness) ([5]; 14 patients): 4 patients
number of patients who complained of headaches much less frequently ([5]; 14 patients): 4 patients
number of patients who slept better ([5]; 14 patients): 2 patients
number of patients with a distinct antidepressive effect ([5]; 14 patients): 8 patients
number of patients with a greater interest in what was happening around ([5]; 14 patients): 8 patients
psychopatic-like and depressive manifestations, conclusion ([5]; 14 patients): definite positive effect
psychopathic-like symptoms (lack of restraint, touchiness, conflict making, evil-mindedness or aggressiveness) ([5]; all 7 patients who suffered from them, during the first 2 weeks of therapy): decreased significantly
toxicity and negative side-effects [6]: non-toxic and does not show any negative side-effects
